pIC50: −log10 of the molar value.
Columns and labels:
[1] = system: mouse Th17 polarization; assay: Mouse Th17 polarization assay (IL-17a producing cells); type: cell-based; settings: for pIC50: naive mouse CD4 T cells, TGFβ and IL6, compounds added Day 1, analyzed Day 4, IL-17a producing cells, read-out: Th 17 IC50
Experimental: Effects of compound derivatives at various concentrations on mouse Th17 polarization. Percentage of DMSO treated IL-17a producing cells was set at 100. Naive mouse CD4 T cells (CD25^−, CD62L^+, and CD44^int-high) were sorted and cultured with CD3/CD28 stimulatory antibodies in the presence of TGFβ (0.1 ng/ml) and IL6 (20 ng/ml). Compounds were added on Day 1 and cells were analyzed on Day 4. For intracellular cytokine staining, cells were incubated for 5 h with phorbol ester (50 ng/ml; Sigma), ionomycin (500 ng/ml; Sigma) and GolgiStop (BD). When needed, surfaces were stained by incubation for 15 min on ice with PECy7-conjugated CD4 (BD Biosciences). The Cytofix/Cytoperm buffer set (BD) was used for intracellular staining. Cells were fixed and made permeable for 30 min on ice and were stained for 30 min on ice in permeabilization buffer with Alexa647-conjugated anti-IL17 (eBioscience) and PE-conjugated anti-IFNg (eBioscience). An LSR II (BD Biosciences) and FlowJo software (Tree Star) were used for flow cytometry. RORg IC50 value acquired from the S2 cell reporter assay is listed for comparison.
Naive CD4 T cells (CD25^−, CD62L^+, and CD44^int-high) were sorted and cultured with CD3/CD28 stimulatory antibodies in the presence of TGFβ (0.1 ng/ml) and IL6 (20 ng/ml). Compounds were added on Day 1 and cells were analyzed on Day 4. For intracellular cytokine staining, cells were incubated for 5 h with phorbol ester (50 ng/ml; Sigma), ionomycin (500 ng/ml; Sigma) and GolgiStop (BD). When needed, surfaces were stained by incubation for 15 min on ice with PECy7-conjugated CD4 (BD Biosciences). The Cytofix/Cytoperm buffer set (BD) or FoxP3 staining kit (eBioscience) were used for intracellular staining. Cells were fixed and made permeable for 30 min on ice and were stained for 30 min on ice in permeabilization buffer with Alexa647-conjugated anti-IL17 (eBioscience), PE-conjugated anti-IFNg (eBioscience), and/or PE-conjugated anti-FoxP3 (eBioscience). An LSR II (BD Biosciences) and FlowJo software (Tree Star) were used for flow cytometry.

[2] = biological target: RORγt (Mus musculus, UniProt P51450, T352K); assay: RORγt S2 cell Gal4-luciferase reporter assay; settings: for Emax: read-out: Efficacy (%)
Excerpt: Methods: The Drosophila S2 cell line was originally purchased from Invitrogen and was maintained in Schneider's medium supplemented with 10% heat-inactivated bovine fetal calf serum and antibiotics (Invitrogen). […] The resulting chimeric gene was subcloned into the copper inducible pMT/V5-His A vector (available from Invitrogen).
In order to generate stable cell lines, cells were co-transfected with pMT-G4DBD-RORγt, pMT-G4DBD-RORα, pMT-G4DBD-DHR3, or pMT-G4DBDVP16 and pHygro plasmids (Invitrogen) and screened for resistant colonies in the presence of hygromycin (0.3 mg/mL).
Methods: 600 G4DBD-RORγ/γt-luc reporter (#25) or G4DBD-VP16-luc reporter cells were distributed into each well of 1,536-well white bottom plates in 4 μl S2 cell culture volume containing hygromicin (300 μg/ml) and puromycin (2 μg/ml). […] After one-hour incubation, 1 μl of culture medium solution containing copper sulfate (to final 0.7 mM) and 10 μM RORγ/γt antagonists were added to each well. After 20-hour incubation at ambient temperature, 1.5 μl firefly luciferase detection mix was added and the luciferase activities were measured in 10 min. ViewLux luminometers were used for measuring luciferase signal.
Since their cognate DNA binding sites were not well characterized, the DNA binding domains (DBD) of RORγ/γt, RORα (mouse homolog for POPγ), and DHR3 (Drosophila orthologue for ROR family proteins) were replaced with the heterologous yeast GAL4 DBD. The transcriptionally active domain of general transcriptional activator VP16 was also fused with GAL4 DBD. The GAL4 fusion constructs were placed under the control of a copper inducible promoter, and stable S2 cell lines with genomic integration of these four reporter constructs were generated. The copper inducible promoter ensures tight regulation of GAL4-fusion protein expression and it allows small molecules to get into the cells prior to protein induction, thus increasing their effects on GAL4 reporters. The stable reporter cell lines also encode the firefly luciferase reporter, whose expression is regulated by five copies of the GAL4 binding site enhancer (UAS), along with the pol III-driven Renilla luciferase reporter.
A cell-based reporter assay was used to detect RORγt-mediated activity. This assay, called RORγt□ employed Drosophila Schneider cells that were stably transfected with two vectors: a gene expressing a fusion of the Gal4 DNA binding domain and RORγt transactivation domain under the control of the metallothionine promoter and a Photinus luciferase reporter regulated by the Gal4 binding site enhancer, UAS. […] Cells (600/well) were dispensed into white solid 1536-well plates (Greiner) using a solenoid-based dispenser. Following transfer of 23 nL compound or DMSO vehicle by a pin tool, the plates were incubated 1 hr at ambient temperature, and 1 uL/well copper sulfate (700 uM final concentration) was added. The plates were centrifuged 15 s at 1000 RPM and incubated 20 hr at ambient temperature. After addition of 1.5 uL Photinus luciferase detection reagent, the plates were incubated 10 min at ambient temperature and then read by a ViewLux (Perkin Elmer) to detect luminescence. […] Efficacy is expressed as % of the maximal response of control inhibitor (Digoxin), set at 100%.

[3] = system: Human memory (CD45RO+CD45RA−CD3+CD4+CCR6+CD161+) cells; assay: Human memory Th17 cell maintenance (IL-17a / IFN-γ staining); type: cell-based; settings: 3 uM, 6 days
Excerpt: Intracellular staining for IFN-γ or IL-17a in memory CD4^+T cells from multiple donors, assessed on day 6. Each symbol (n=11 or 9, respectively) indicates a separate donor.

[4] = system: human Th17 cell differentiation; assay: Human Th17 cell differentiation of naive cord blood T cells; type: cell-based; settings: IL2, IL23, IL1β, TGFβ, six days (FIG. 6B)
Experimental: Flow cytometry of IL-17a and IFN-γ production by cord blood naive CD4^+T cells (CD45RO^−CD45RA^+CD3^+CD4^+CD25^−HLA-DR^−)transduced with RORαd-IRES-GFP or RORγt-IRES-GFP on day 1 and analyzed on day 6. GFP expressing cells were gated for analysis. […] Flow cytometry of IL-17a and IFN-γ production by human naive cord blood T cells (CD45RO^−D45RA^+CD3^+CD4^+CD25^−HLA-DR^−), which were cultured for six days in presence of IL2, IL23 and IL1β, and with various concentrations of TGFβ (ng/ml). DMSO or N2 was added 16 hours after the cytokine addition.
The results depict flow cytometry of IL-17a and IFN-γ production by cord blood naive CD4^+ T cells (CD45RO^−CD45RA^+CD3^+CD4^+CD25^−HLA-DR^−)transduced with human RORαd-IRES-GFP or human RORγt-IRES-GFP on day 1 and analyzed on day 6. GFP expressing cells were gated for analysis. […] The results depict flow cytometry of IL-17a and IFN-γ production by human naive cord blood T cells (CD45RO^−D45RA^+CD3^+CD4^+CD25^−HLA-DR^−), which were cultured for six days in the presence of IL2, IL23 and ILβ, and with various concentrations of TGFβ (ng/mL). […] IL-17a-APC (eBio64CAP17 eBioscience) and IFN-γ-PECy7 (45.B3 eBioscience) were used for analysis.

[5] = IC50(μM), Drosophila S2 cells, Gal4-RORγt luciferase reporter, 20 hr
[6] = S2 cell RORg IC50 μM, S2 cell reporter assay, listed for comparison

RORγt, sequence (P51450 with tags, fused parts or gaps T352K): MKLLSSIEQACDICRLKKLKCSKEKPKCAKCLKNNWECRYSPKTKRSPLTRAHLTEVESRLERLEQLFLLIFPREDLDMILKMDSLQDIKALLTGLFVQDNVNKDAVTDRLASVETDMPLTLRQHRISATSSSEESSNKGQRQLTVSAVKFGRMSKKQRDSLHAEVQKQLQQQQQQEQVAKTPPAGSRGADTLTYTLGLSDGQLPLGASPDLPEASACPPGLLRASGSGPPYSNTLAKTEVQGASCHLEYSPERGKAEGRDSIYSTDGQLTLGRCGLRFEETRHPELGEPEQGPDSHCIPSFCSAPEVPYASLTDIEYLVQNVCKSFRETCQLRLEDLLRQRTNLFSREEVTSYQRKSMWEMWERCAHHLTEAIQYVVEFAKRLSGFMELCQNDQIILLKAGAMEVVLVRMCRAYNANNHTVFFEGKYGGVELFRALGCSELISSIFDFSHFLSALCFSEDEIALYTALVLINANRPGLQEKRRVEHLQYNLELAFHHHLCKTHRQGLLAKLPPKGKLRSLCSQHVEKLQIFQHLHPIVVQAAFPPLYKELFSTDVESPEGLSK

Row | Compound | pIC50 [1] | Emax [2] [%] | IC50 [2, 5] [µM] | IC50 [2, 6] [µM] | also measured
1 | COc1cc(O)c([C@@H](CC(=O)N2CC(C)CC(C)C2)c2ccc3c(c2)OCO3)c(OC)c1 (single isomer, unassigned; (-)) [Compound 35] | > 6.00 | 91 |  |  | 
2 | COc1cc(O)c(C(CC(=O)N2CCC(C)CC2)c2ccc3c(c2)OCO3)c(OC)c1 (stereo not drawn) [Compound 1] | < 4.70 |  |  |  | 
3 | COc1cc(O)c(C(CC(=O)N2CCCC(C)(C)C2)c2ccc3c(c2)OCO3)c(OC)c1 (stereo not drawn) [Compound 8] | 5.00 to 6.00 |  |  |  | 
4 | COc1cc(O)c(C(CC(=O)N2CC(C)CC(C)C2)c2ccc3c(c2)OCO3)c(OC)c1 (stereo not drawn) [Compound 22] | > 6.00 | 97.7 |  |  | 
5 | COc1cc(O)c(C(CC(=O)N2CC(C)OC(C)C2)c2ccc3c(c2)OCO3)c(OC)c1 (stereo not drawn) [Compound 41] | > 6.00 |  |  |  | 
6 | COc1cc(O)c(C(CC(=O)N2CC(C)NC(C)C2)c2ccc3c(c2)OCO3)c(OC)c1 (stereo not drawn) [Compound 42] | < 4.70 |  | > 50 | > 20 | 
7 | COc1cc(O)c(C(CC(=O)N2CCCC(C(F)(F)F)C2)c2ccc3c(c2)OCO3)c(OC)c1 (stereo not drawn) [Compound 43] | 5.00 to 6.00 |  |  |  | 
8 | COc1cc(O)c(C(CC(=O)N2CCCC(C)C2)c2ccc(C)cc2)c(OC)c1 (stereo not drawn) [Compound 57] | 5.00 to 6.00 | 97 | 1 to 10 | 1 to 10 | 
9 | COc1ccc(C(CC(=O)N2CCCC(C)C2)c2c(O)cc(OC)cc2OC)cc1 (stereo not drawn) [Compound 60] | 5.00 to 6.00 | 91.7 | 1 to 10 | 1 to 10 | 
10 | COc1cc(O)c(C(CC(=O)N2CCCC(C)C2)c2ccccc2)c(OC)c1 (stereo not drawn) [Compound 61] | < 4.70 | 95.4 | 1 to 10 | 1 to 10 | 
11 | COc1cc(O)c(C(CC(=O)N2CCCC(C)C2)c2ccccc2C)c(OC)c1 (stereo not drawn) [Compound 63] | < 4.70 | 93.5 | 1 to 10 | 1 to 10 | 
12 | COc1ccc(C(CC(=O)N2CCCC(C)C2)c2c(O)cc(OC)cc2OC)c(OC)c1 (stereo not drawn) [Compound 69] | < 4.70 | 45.6 | 11 to 50 | > 20 | 
13 | COc1cc(O)c(C(CC(=O)N2CC(C)CC(C)C2)c2ccc(N(C)C)cc2)c(OC)c1 (stereo not drawn) [Compound 72] | > 6.00 | 96.8 | 1 to 10 | 1 to 10 | 
14 | COc1cc(O)c(C(CC(=O)N2CC(C)CC(C)C2)c2ccc(C)cc2)c(OC)c1 (stereo not drawn) [Compound 73] | > 6.00 |  |  |  | 
15 | COc1ccc(C(CC(=O)N2CC(C)CC(C)C2)c2c(O)cc(OC)cc2OC)cc1 (stereo not drawn) [Compound 74] | > 6.00 |  |  |  | 
16 | COc1cc(O)c(C(CC(=O)N2CC(C)CC(C)C2)c2ccc(O)cc2)c(OC)c1 (stereo not drawn) [Compound 75] | > 6.00 | 93.8 | 1 to 10 | 1 to 10 | 
17 | COc1cc(O)c(C(CC(=O)N2CC(C)CC(C)C2)c2ccc3c(c2)OCCO3)c(OC)c1 (stereo not drawn) [Compound 76] | > 6.00 | 95.4 | < 1 | 1 to 10 | 
18 | COc1ccc(C(CC(=O)N2CCCC(C)C2)c2ccc3c(c2)OCO3)c(O)c1 (stereo not drawn) [Compound 115] | < 4.70 |  |  |  | 
19 | COc1cc(OC)c(C(CC(=O)N2CCCC(C)C2)c2ccc3c(c2)OCO3)c(OC)c1 (stereo not drawn) [Compound 120, 3-(Benzo[d][1,3]dioxol-5-yl)-1-(3-methylpiperidin-1-yl)-3-(2,4,6-trimethoxyphenyl)propan-1-one] | 5.00 to 6.00 |  |  |  | 

Row | Compound | pIC50 [1] | Emax [2] [%] | IC50 [2, 5] [µM] | IC50 [2, 6] [µM] | also measured
20 | COc1cccc(O)c1C(CC(=O)N1CCCC(C)C1)c1ccc2c(c1)OCO2 (stereo not drawn) [Compound 121] | < 4.70 |  |  |  | 
21 | COc1cc(OC)c(C(CC(=O)N2CC(C)CC(C)C2)c2ccc3c(c2)OCO3)c(OC)c1 (stereo not drawn) [Compound 134] | > 6.00 | 96.4 | 1 to 10 | 1 to 10 | 
22 | COCOc1cc(OC)cc(OC)c1C(CC(=O)N1CC(C)CC(C)C1)c1ccc2c(c1)OCO2 (stereo not drawn) [Compound 135] | 5.00 to 6.00 | 96.5 | 1 to 10 | 1 to 10 | 
23 | COc1cc(OC)c(C(CC(=O)N2CC(C)CC(C)C2)c2ccc3c(c2)OCO3)c(OCC#N)c1 (stereo not drawn) [Compound 136] | 5.00 to 6.00 | 90 | 1 to 10 | 1 to 10 | 
24 | COc1cc(OC)c(C(CC(=O)N2CC(C)CC(C)C2)c2ccc3c(c2)OCO3)c(OCC(N)=O)c1 (stereo not drawn) [Compound 137] | < 4.70 | 98.5 | 11 to 50 | 11 to 20 | 
25 | CC1CC(C)CN(C(=O)CC(c2ccc3c(c2)OCO3)c2c(O)ccc3ccccc23)C1 (stereo not drawn) [Compound 138] | 5.00 to 6.00 |  |  |  | 
26 | O=C(CC(c1ccc2c(c1)OCO2)c1c(O)ccc2ccccc12)N1CCCCC1 (stereo not drawn) [Compound 147] |  | 88.1 | 11 to 50 |  | 
27 | COc1cc(OC)c(C(c2ccccc2)C(C)(C)C(=O)N2CC(C)CC(C)C2)c(OC)c1 (stereo not drawn) [Compound 149, 1-(3,5-Dimethylpiperidin-1-yl)-2,2-dimethyl-3-phenyl-3-(2,4,6-trimethoxyphenyl)propan-1-one] |  | 93.8 | 1 to 10 | 1 to 10 | 
28 | COc1cc(OC)c(C(c2ccccc2)C(C)(C)C(=O)N2CC(C)OC(C)C2)c(OC)c1 (stereo not drawn) [Compound 150] |  | 91.6 | 1 to 10 |  | 
29 | COc1cc(OC)c(C(c2ccccc2)C(C)(C)C(=O)N2CC3CC4CC(C3)CC2C4)c(OC)c1 (stereo not drawn) [Compound 151] |  | 118 | > 50 |  | 
30 | COc1cc(OC)c(C(c2ccccc2)C(C)(C)C(=O)N2CC3CCC2C3)c(OC)c1 (stereo not drawn) [Compound 152] |  | 50.7 | 11 to 50 |  | 
31 | COc1cc(OC)c(C(c2ccccc2)C(C)(C)C(=O)N2C3CCC2CC3)c(OC)c1 (stereo not drawn) [Compound 153] |  | 36.5 | 1 to 10 |  | 
32 | COc1cc(OC)c(C(c2ccccc2)C(C)(C)C(=O)NC2CC(C)(C)CC(C)(C)C2)c(OC)c1 (stereo not drawn) [Compound 154] |  |  | > 50 |  | 
33 | CCCN(C(=O)C(C)(C)C(c1ccccc1)c1c(OC)cc(OC)cc1OC)C1CCCC(C)C1 (stereo not drawn) [Compound 155] |  |  | > 50 |  | 
34 | COc1ccc2ccccc2c1C(c1ccc(F)cc1)C(C)(C)C(=O)N1CC(C)OC(C)C1 (stereo not drawn) [Compound 156] |  | 99.9 | 11 to 50 |  | 
35 | COc1ccc2ccccc2c1C(c1ccc(F)cc1)C(C)(C)C(=O)N1CC(C)CC(C)C1 (stereo not drawn) [Compound 157] |  | 94.4 | 1 to 10 |  | 
36 | COc1cc(O)c(C(CC(=O)N2CCCCC2)c2ccc3c(c2)OCO3)c(OC)c1 (stereo not drawn) [NCGC00166488] |  |  |  |  | mouse Th17 cell differentiation, as measured by IL17a production ([1]; 20 μM, compared to DMSO treated cells, FACS (FIG. 3)): suppress mouse Th17 cell differentiation
37 | COc1cc(O)c(C(CC(=O)N2C[C@H](C)C[C@H](C)C2)c2ccc3c(c2)OCO3)c(OC)c1 (stereo partly drawn) [NCGC00238427] |  |  |  |  | IL-17a expression in human memory Th17 cells ([3]; multiple donors, IL-17a+IFN-γ+/−, p=0.02 (FIG. 7)): inhibits human Th17 cell memory cells expression of IL-17a; IL-17a−IFN-γ+ memory CD4+ T cells, with versus without compound ([3]; two-tailed unpaired Student's t test (FIG. 7)): not significant; concentration at which human Th17 cell differentiation is inhibited [4]: ≤ 1 µM
38 | N-(3-(3-(3,5-Dimethylpiperidin-1-yl)-1-(2-hydroxy-4,6-dimethoxyphenyl)-3-oxopropyl)phenyl)methanesulfonamide [Compound 82] |  |  |  |  | Efficacy (%) ([2]; % of the maximal response of control inhibitor (Digoxin), set at 100%): −95.39%; pIC50 ([2]; Drosophila S2 cells, Gal4-RORγt luciferase reporter, 20 hr): > 6.00
